Our source for the IC50 values is US20240109853A1 (Shanghai Yao Yuan Biotechnology Co., Ltd., priority 2020, published 2024).

The IC50 is the concentration needed to halve the response being measured.

The target in one experiment is ALPK1 (Homo sapiens (Human), UniProt Q96QP1). As to the kind of experiment: ALPK1 in vitro kinase assay (HTRF of TIFA phosphorylation). The experiment is classed as biochemical. For orientation: In TR-FRET formats the signal depends on donor and acceptor labels being close together.
In experiment [1] the test system is ALPK1-dependent NFκB reporter gene activation in HEK293 cells stably expressing an NF-kB reporter (G9 cells). As to the kind of experiment: NFκB gene reporter alkaline phosphatase assay. The experiment is classed as cell-based. The note with it: Homo sapiens, HEK293; read-out: NFkB assay IC50. The source says: In embodiments, a compound of Formula I, or a subembodiment described herein, is an inhibitor of ALPK1 as measured, for example, in an in vitro kinase assay, or an assay designed to measure the activation of downstream targets of ALPK1 pathway activation, for example NFkB transcriptional activation and the secretion of proinflammatory cytokines and chemokines, such as IL-8, which is also referred to as CXCL-8. In general, the computer program XL fit was used for data analysis, including non-linear regression analysis. The half maximal inhibitory concentration (IC50) was used as the measure of a compound's effectiveness in the assays. IC50 values were determined using the following logistic equation Y=min+(max−min)/(1+(X/IC50^−hillslpoe), where Y is the value at the compound concentration, X. The concentration response curve fitting was conducted using GraphPad Prism version 6.00 software.
An alkaline phosphatase reporter assay system was used to measure inhibition of ALPK1-dependent NFκB reporter gene activation. Briefly, HEK293 cells stably expressing an NF-kB reporter (referred to herein as “G9 cells”) were maintained in DMEM as described above. For the assay, cells were seeded into 96-well plates at a density of 10,000 cells/well in Freestyle™ 293 Expression Medium (ThermoFisher), and allowed to attach overnight. Cells were pretreated with serially diluted compounds for 30 min and then stimulated with D-glycero-D-manno-6-fluoro-heptose-1β-S-ADP. […] NFkB gene activation was detected using the chromogenic substrate, para-nitrophenyl phosphate (pNPP) according to the manufacturer's protocols (pNPP Phosphatase Assay, Beyotime Biotechnology).

Sequence of ALPK1 (Q96QP1 whole entry): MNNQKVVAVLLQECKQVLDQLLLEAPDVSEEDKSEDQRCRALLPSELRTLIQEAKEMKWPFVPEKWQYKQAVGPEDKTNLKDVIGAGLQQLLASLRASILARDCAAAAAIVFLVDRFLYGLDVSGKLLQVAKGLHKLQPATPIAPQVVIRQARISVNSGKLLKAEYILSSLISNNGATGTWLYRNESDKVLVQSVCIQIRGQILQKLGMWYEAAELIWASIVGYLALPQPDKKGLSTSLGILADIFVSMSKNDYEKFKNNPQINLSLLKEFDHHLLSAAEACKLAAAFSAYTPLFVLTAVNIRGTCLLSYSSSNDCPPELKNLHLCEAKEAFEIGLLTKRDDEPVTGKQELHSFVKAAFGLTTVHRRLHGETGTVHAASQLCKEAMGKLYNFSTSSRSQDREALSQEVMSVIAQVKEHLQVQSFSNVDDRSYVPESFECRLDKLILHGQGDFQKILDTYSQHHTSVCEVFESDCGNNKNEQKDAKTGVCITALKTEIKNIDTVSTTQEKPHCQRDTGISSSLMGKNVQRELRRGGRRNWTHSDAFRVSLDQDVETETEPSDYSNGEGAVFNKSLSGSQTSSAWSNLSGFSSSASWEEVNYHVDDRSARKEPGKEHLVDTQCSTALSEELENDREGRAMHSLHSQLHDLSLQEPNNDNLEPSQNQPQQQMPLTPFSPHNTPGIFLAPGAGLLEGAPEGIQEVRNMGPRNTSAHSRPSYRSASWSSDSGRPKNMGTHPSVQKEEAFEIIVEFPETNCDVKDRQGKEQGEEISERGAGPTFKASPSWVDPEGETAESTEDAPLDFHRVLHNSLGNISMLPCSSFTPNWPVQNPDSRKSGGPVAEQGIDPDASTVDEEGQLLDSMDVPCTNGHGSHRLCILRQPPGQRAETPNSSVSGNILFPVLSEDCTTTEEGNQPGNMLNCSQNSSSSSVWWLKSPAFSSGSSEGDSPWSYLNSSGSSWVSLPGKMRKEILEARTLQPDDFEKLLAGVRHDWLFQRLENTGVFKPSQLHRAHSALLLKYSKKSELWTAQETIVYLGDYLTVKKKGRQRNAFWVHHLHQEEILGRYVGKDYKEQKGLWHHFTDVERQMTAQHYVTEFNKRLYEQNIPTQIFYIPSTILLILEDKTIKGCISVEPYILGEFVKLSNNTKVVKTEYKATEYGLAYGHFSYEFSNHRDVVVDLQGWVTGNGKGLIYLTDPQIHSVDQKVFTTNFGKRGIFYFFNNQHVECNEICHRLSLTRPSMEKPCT

Take `CC(C)(c1ccc(Br)cc1)c1csc(NC(=O)NCc2ccc(N3CCNCC3)nc2)n1` [Example A092, 1-(4-(2-(4-bromophenyl)propan-2-yl)thiazol-2-yl)-3-((6-(piperazin-1-yl)pyridin-3-yl)methyl)urea]: the IC50 is 20 nM on ALPK1 and 570 nM in experiment [1].
The matching figures for `C#CC(C)(c1ccc(Cl)cc1)c1csc(NC(=O)N(CCO)CCO)n1` (stereo not shown) [Example A253, 3-(4-(2-(4-chlorophenyl)but-3-yn-2-yl)thiazol-2-yl)-1,1-bis(2-hydroxyethyl)urea]: 172 nM and 3050 nM.
For the compound `CC(C)(c1ccc(Br)cc1)c1csc(NC(=O)NCCCN2CCC(O)C2)n1` (stereo not shown) [Example A129, 1-(4-(2-(4-bromophenyl)propan-2-yl)thiazol-2-yl)-3-(3-(3-hydroxypyrrolidin-1-yl)propyl)urea], the half-maximal inhibitory concentration (IC50) at ALPK1 stood at 40 nM; in experiment [1], 510 nM.
With `C#CC(C)(c1ccc(Cl)cc1)c1nc(NC(=O)NCCO)sc1F` (stereo not shown) [Example A279, 1-(4-(2-(4-chlorophenyl)but-3-yn-2-yl)-5-fluorothiazol-2-yl)-3-(2-hydroxyethyl)urea], the 50% inhibitory concentration (IC50) was found to be 222 nM at ALPK1 and 4230 nM in experiment [1].
For `CC(C)(c1ccc(Br)cc1)c1csc(NC(=O)NCc2ccc(OCCN)cc2)n1` [Example A212, 1-(4-(2-aminoethoxy)benzyl)-3-(4-(2-(4-bromophenyl)propan-2-yl)thiazol-2-yl)urea], the IC50 against ALPK1 amounted to 289 nM; in experiment [1], 2750 nM.
The matching figures for `C#C[C@@](C)(c1ccc(F)cc1)c1csc(NC(=O)NCCS(N)(=O)=O)n1` [Example A285, 2-(3-(4-(2-(4-fluorophenyl)but-3-yn-2-yl)thiazol-2-yl)ureido)ethanesulfona-mide]: 350 nM and 1360 nM.
As to `CC(NC(=O)Nc1nc(C(C)(C)c2ccc(Br)cc2)cs1)c1ccc(N2CCNCC2)cc1` (stereo not shown) [Example A073, 1-(4-(2-(4-bromophenyl)propan-2-yl)thiazol-2-yl)-3-(1-(4-(piperazin-1-yl)phenyl)ethyl)urea], the IC50 against ALPK1 was 85 nM; in experiment [1] it was 2790 nM.
The matching figures for `CC(C)(c1ccc(Br)cc1)c1csc(NC(=O)NCc2cnc(N3CCNCC3)cn2)n1` [Example A093, 1-(4-(2-(4-bromophenyl)propan-2-yl)thiazol-2-yl)-3-((5-(piperazin-1-yl)pyrazin-2-yl)methyl)urea]: 9 nM and 320 nM.
Regarding `C#CC(C)(c1ccc(OC)cc1)c1csc(NC(=O)NCCO)n1` (stereo not shown) [Example A168, 1-(2-hydroxyethyl)-3-(4-(2-(4-methoxyphenyl)but-3-yn-2-yl)thiazol-2-yl)urea], the IC50 was 27 nM against ALPK1 and 400 nM in experiment [1].
Turning to `C#CC(C)(c1ccc(Cl)cc1)c1csc(NC(=O)N2CCC(CO)C2)n1` (stereo not shown) [Example A270, N-(4-(2-(4-chlorophenyl)but-3-yn-2-yl)thiazol-2-yl)-3-(hydroxymethyl)pyrroli-dine-1-carboxamide], the values for the IC50 (against ALPK1; in experiment [1]) were 904 nM and 1970 nM, respectively.
The matching figures for `C#C[C@@](C)(c1ccc(Cl)cc1)c1csc(NC(=O)N2CC(CO)C2)n1` [Example A258, (S)-N-(4-(2-(4-chlorophenyl)but-3-yn-2-yl)thiazol-2-yl)-3-(hydroxymethyl)azetidine-1-carboxamide]: 357 nM and 1330 nM.
Consider `C#C[C@](C)(c1ccc(Cl)cc1)c1csc(NC(=O)NC(C)(C)CO)n1` (stereo in doubt) [Example A293, 1-(4-(2-(4-chlorophenyl)but-3-yn-2-yl)thiazol-2-yl)-3-(1-hydroxy-2-methylpropan-2-yl)urea], for which the values for the IC50 (at ALPK1; in experiment [1]) were 9360 nM and 8110 nM, respectively.
The matching figures for `C#CC(C)(c1ccc(Br)cc1)c1csc(NC(=O)NCC(O)CO)n1` (stereo not shown) [Example A156, 1-(4-(2-(4-bromophenyl)but-3-yn-2-yl)thiazol-2-yl)-3-(2,3-dihydroxypropyl)urea]: 22 nM and 380 nM.
The matching figures for `COc1ccc(C(C)(C)c2csc(NC(=O)NCc3cnc(N4CCC(N)C4)nc3)n2)cc1` (stereo not shown) [Example A187, 1-((2-(3-aminopyrrolidin-1-yl)pyrimidin-5-yl)methyl)-3-(4-(2-(4-methoxyphenyl)propan-2-yl)thiazol-2-yl)urea]: 7 nM and 700 nM.
For the compound `CC(C)(c1ccc(Br)cc1)c1csc(NC(=O)NCc2ccc(F)c(Cl)c2)n1` [Example A017, 1-(4-(2-(4-bromophenyl)propan-2-yl)thiazol-2-yl)-3-(3-chloro-4-fluorobenzyl)urea], the IC50 on ALPK1 is 204 nM; in experiment [1], 970 nM.
The matching figures for `COc1ccc(C(C)(C)c2csc(NC(=O)NCc3ccc(N4CCC(N)C4)cn3)n2)cc1` (stereo not shown) [Example A200, 1-((5-(3-aminopyrrolidin-1-yl)pyridin-2-yl)methyl)-3-(4-(2-(4-methoxyphenyl)propan-2-yl)thiazol-2-yl)urea]: 43 nM and 520 nM.
For `C#CC(C)(c1ccc(Cl)cc1)c1csc(NC(=O)NO)n1` (stereo not shown) [Example A271, 1-(4-(2-(4-chlorophenyl)but-3-yn-2-yl)thiazol-2-yl)-3-hydroxyurea], the IC50 amounted to 493 nM on ALPK1 and 730 nM in experiment [1].
Turning to `COc1ccc(C(C)(C)c2csc(NC(=O)NCc3ccc(NC4CCNCC4)cc3)n2)cc1` [Example A041, 1-(4-(2-(4-methoxyphenyl)propan-2-yl)thiazol-2-yl)-3-(4-(piperidin-4-ylamino)benzyl)urea], the figures for the IC50 (against ALPK1; in experiment [1]) were 23 nM and 1860 nM, respectively.
The matching figures for `CCCN1CCN(c2ccc(CNC(=O)Nc3nc(C(C)(C)c4ccc(OC)cc4)cs3)cc2C(N)=O)CC1` [Example A116, 5-((3-(4-(2-(4-methoxyphenyl)propan-2-yl)thiazol-2-yl)ureido)methyl)-2-(4-propylpiperazin-1-yl)benzamide]: 72 nM and 720 nM.
As to `C#C[C@@](C)(c1ccc(OC)cc1)c1csc(NC(=O)NCCO)n1` [Example A170, (S)-1-(2-hydroxyethyl)-3-(4-(2-(4-methoxyphenyl)but-3-yn-2-yl)thiazol-2-yl)urea], the results for the IC50 (against ALPK1; in experiment [1]) were 8 nM and 460 nM, respectively.
The matching figures for `C#C[C@@](C)(c1ccc(Br)cc1)c1csc(NC(=O)NCCO)n1` [Example A160, (S)-1-(4-(2-(4-bromophenyl)but-3-yn-2-yl)thiazol-2-yl)-3-(2-hydroxyethyl)urea]: 10 nM and 170 nM.
For the compound `C#CC(C)(c1ccc(Br)cc1)c1csc(NC(=O)NCCO)n1` (stereo not shown) [Example A159, 1-(4-(2-(4-bromophenyl)but-3-yn-2-yl)thiazol-2-yl)-3-(4-hydroxyethyl)urea], the IC50 came out at 48 nM against ALPK1 and 490 nM in experiment [1].
The matching figures for `C#C[C@@](C)(c1ccc(OC)cc1)c1csc(NC(N)=O)n1` [Example A173, (S)-1-(4-(2-(4-methoxyphenyl)but-3-yn-2-yl)thiazol-2-yl)urea]: 8 nM and 580 nM.
The matching figures for `CC(C)(c1ccc(Br)cc1)c1csc(NC(=O)NCc2ccnc(N3CCNCC3)c2)n1` [Example A181, 1-(4-(2-(4-bromophenyl)propan-2-yl)thiazol-2-yl)-3-((2-(piperazin-1-yl)pyridin-4-yl)methyl)urea]: 131 nM and 1520 nM.
As to `CNS(=O)(=O)[C@H]1C[C@H](CNC(=O)Nc2nc(C(C)(C)c3ccc(OC)cc3)cs2)C1` [Example A150, rac-(1r,3r)-3-((3-(4-(2-(4-methoxyphenyl)propan-2-yl)thiazol-2-yl)ureido)methyl)-N-methylcyclobutane-1-sulfonamide], the values for the IC50 (at ALPK1; in experiment [1]) were 25 nM and 1410 nM, respectively.
With `CC(C)(c1ccc(Br)cc1)c1csc(NC(=O)NCc2cnc(N3CCC(N)CC3)nc2)n1` [Example A099, 1-((2-(4-aminopiperidin-1-yl)pyrimidin-5-yl)methyl)-3-(4-(2-(4-bromophenyl)propan-2-yl)thiazol-2-yl)urea], the IC50 amounted to 13 nM at ALPK1 and 450 nM in experiment [1].
The matching figures for `COc1ccc(C(C)(C)c2csc(NC(=O)NCc3ccc(N4CCNCC4)c(F)c3)n2)cc1` [Example A054, 1-(3-fluoro-4-(piperazin-1-yl)benzyl)-3-(4-(2-(4-methoxyphenyl)propan-2-yl)thiazol-2-yl)urea]: 30 nM and 880 nM.
The matching figures for `CC(C)(c1ccc(Br)cc1)c1csc(NC(=O)NCc2ccc(N3CCNCC3)c(F)c2)n1` [Example A050, 1-(4-(2-(4-bromophenyl)propan-2-yl)thiazol-2-yl)-3-(3-fluoro-4-(piperazin-1-yl)benzyl)urea]: 26 nM and 1210 nM.
`O=C(Nc1nc(C2(c3ccc(Br)cc3)CCCC2)cs1)N1CC(c2ccc(N3CCNCC3)c(F)c2)C1` [Example A236, N-(4-(1-(4-bromophenyl)cyclopent-yl)thiazol-2-yl)-3-(3-fluoro-4-(piperazin-1-yl)phenyl)azetidine-1-carboxamide]: the IC50 on ALPK1 was 13 nM; in experiment [1], 4500 nM.
